Experimental data published in DBAASP.
Converted amounts (≈) assume the structure as drawn. “And” between values parts separate entries of the source, which are not always exact repeats. Equal entries are not always repeated.

What was measured:
Assay in all cases: ≥ marks a high value that may be exact or a test limit, other limits are often not marked, values filed in µg/mL are converted to µM
[1] = tested on: Candida albicans CGMCC 2.2086
Candida albicans = tested on: Candida albicans
[2] = tested on: Candida parapsilosis CGMCC 2.3989
[3] = tested on: Candida tropicalis CGMCC 2.1975
[4] = tested on: Enterococcus faecalis ATCC 29212
Escherichia coli UB1005 = tested on: Escherichia coli UB1005
[5] = tested on: Pseudomonas aeruginosa ATCC 27853
[6] = tested on: Pseudomonas aeruginosa PAO1
[7] = tested on: Salmonella enterica subsp. enterica serovar Choleraesuis CVCC 503
[8] = tested on: Salmonella enterica subsp. enterica serovar Typhimurium ATCC 14028
[9] = tested on: Salmonella enterica subsp. enterica serovar Typhimurium C77-31
[10] = tested on: Staphylococcus aureus ATCC 25923
[11] = tested on: Staphylococcus aureus ATCC 29213
[12] = tested on: Staphylococcus aureus ATCC 43300
[13] = tested on: Staphylococcus epidermidis ATCC 12228
Escherichia coli 078 = tested on: Escherichia coli 078
Escherichia coli K88 = tested on: Escherichia coli K88
Escherichia coli K99 = tested on: Escherichia coli K99
[14] = tested on: Salmonella enterica subsp. enterica serovar Pullorum ATCC 7913
[15] = tested on: Pseudomonas aeruginosa H1001
[16] = tested on: Candida albicans NCYC 1467
[17] = tested on: Enterococcus faecalis NCTC 12697
[18] = tested on: Escherichia coli NCTC 10418
[19] = tested on: Klebsiella pneumoniae ATCC 43816
[20] = tested on: Staphylococcus aureus NCTC 10788
[21] = tested on: Staphylococcus aureus NCTC 12493

SMILES	MIC [1]	MIC (Candida albicans)	MIC [2]	MIC [3]	MIC [4]	MIC (Escherichia coli UB1005)	MIC [5]	MIC [6]	MIC [7]	MIC [8]	MIC [9]	MIC [10]	MIC [11]	MIC [12]	MIC [13]	also measured
CC(C)C[C@H](NC(=O)[C@H](CCCCN)NC(=O)[C@H](CCCCN)NC(=O)[C@H](CC(C)C)NC(=O)[C@H](CCCN=C(N)N)NC(=O)[C@H](CS)NC(=O)[C@H](C)NC(=O)[C@H](CC(C)C)NC(=O)[C@H](CCCCN)NC(=O)[C@H](CCCCN)NC(=O)[C@H](CC(C)C)NC(=O)[C@H](CCCN=C(N)N)NC(=O)[C@H](CS)NC(=O)[C@H](C)NC(=O)[C@H](CC(C)C)NC(=O)[C@H](CCCCN)NC(=O)[C@H](CCCCN)NC(=O)[C@@H](N)CC(C)C)C(=O)N[C@@H](C)C(=O)N[C@@H](CS)C(=O)N[C@@H](CCCN=C(N)N)C(N)=O [LKKLACRLKKLACRLKKLACR]	8 µM and 16 µM	4 µM (≈ 9.83 µg/mL)	8 µM (≈ 19.7 µg/mL)	1 µM (≈ 2.46 µg/mL)	16 µM (≈ 39.3 µg/mL)	2 µM (≈ 4.91 µg/mL)	4 µM (≈ 9.83 µg/mL)	4 µM (≈ 9.83 µg/mL)	2 µM (≈ 4.91 µg/mL)	4 µM (≈ 9.83 µg/mL)	8 µM (≈ 19.7 µg/mL)	16 µM (≈ 39.3 µg/mL)	8 µM (≈ 19.7 µg/mL)	4 µM (≈ 9.83 µg/mL)	16 µM (≈ 39.3 µg/mL)	
CC(C)C[C@H](NC(=O)[C@H](CCCN=C(N)N)NC(=O)[C@H](C)NC(=O)[C@H](CS)NC(=O)[C@H](CC(C)C)NC(=O)[C@H](CCCCN)NC(=O)[C@H](CCCCN)NC(=O)[C@H](CC(C)C)NC(=O)[C@H](CCCN=C(N)N)NC(=O)[C@H](C)NC(=O)[C@H](CS)NC(=O)[C@H](CC(C)C)NC(=O)[C@H](CCCCN)NC(=O)[C@H](CCCCN)NC(=O)[C@@H](N)CC(C)C)C(=O)N[C@@H](CCCCN)C(=O)N[C@@H](CCCCN)C(=O)N[C@@H](CC(C)C)C(=O)N[C@@H](CS)C(=O)N[C@@H](C)C(=O)N[C@@H](CCCN=C(N)N)C(N)=O [LKKLCARLKKLCARLKKLCAR]		5.66 µM (≈ 13.9 µg/mL)	8 µM (≈ 19.7 µg/mL)	2 µM (≈ 4.91 µg/mL)	> 64 µM	2 µM (≈ 4.91 µg/mL)	16 µM (≈ 39.3 µg/mL)	16 µM (≈ 39.3 µg/mL)	8 µM (≈ 19.7 µg/mL)	32 µM (≈ 78.6 µg/mL)	≥ 64 µM	> 64 µM	> 64 µM	32 µM (≈ 78.6 µg/mL)	> 64 µM	
CC[C@H](C)[C@H](NC(=O)[C@H](CCCN=C(N)N)NC(=O)[C@H](C)NC(=O)[C@H](C)N)C(=O)N[C@H](C(=O)N[C@@H](CC(C)C)C(=O)N[C@@H](CCCN=C(N)N)C(=O)N[C@@H](CC(N)=O)C(=O)N[C@@H](CCCN=C(N)N)C(=O)N[C@@H](Cc1ccccc1)C(=O)N[C@@H](CCCN=C(N)N)C(N)=O)[C@@H](C)CC [AARIILRNRFR]	≥ 128 µM		≥ 128 µM	≥ 128 µM		16 µM (≈ 22.2 µg/mL)	> 128 µM			32 µM (≈ 44.3 µg/mL)	≥ 32 µM	> 128 µM	> 128 µM	> 128 µM	> 128 µM	MIC (Escherichia coli 078): 16 µM (≈ 22.2 µg/mL); MIC (Escherichia coli K88): ≥ 32 µM; MIC (Escherichia coli K99): 16 µM (≈ 22.2 µg/mL); MIC [14]: 16 µM (≈ 22.2 µg/mL)
CC[C@H](C)[C@H](NC(=O)[C@H](CCCN=C(N)N)NC(=O)[C@H](CCCN=C(N)N)NC(=O)[C@@H]1CCCN1C(=O)[C@@H]1CCCN1C(=O)[C@H](CCCN=C(N)N)NC(=O)[C@@H]1CCCN1C(=O)[C@H](CCCN=C(N)N)NC(=O)[C@@H]1CCCN1C(=O)[C@H](CC(C)C)NC(=O)[C@H](Cc1ccc(O)cc1)NC(=O)[C@@H]1CCCN1C(=O)[C@@H]1CCCN1C(=O)[C@H](CCCCN)NC(=O)[C@H](CC(=O)O)NC(=O)[C@@H](N)C(C)C)C(=O)N[C@@H](Cc1ccc(O)cc1)C(=O)N[C@@H](CCCCN)C(=O)N[C@@H](CCCN=C(N)N)C(=O)NCC(=O)O [VDKPPYLPRPRPPRRIYKRG]																MIC [15]: 0.106 µM (≈ 0.26 µg/mL)
CC[C@H](C)[C@@H]1NC(=O)[C@H](C)NC(=O)[C@@H](NC(=O)[C@H](Cc2ccccc2)NC(=O)[C@H](Cc2c[nH]c3ccccc23)NC(=O)[C@H](CCCCN)NC(=O)[C@H](Cc2c[nH]c3ccccc23)NC(=O)[C@@H]2CCCN2C(=O)[C@H](CC(C)C)NC(=O)[C@H](Cc2ccccc2)NC(=O)[C@@H](N)CCCCN)CSSC[C@@H](C(=O)O)NC(=O)[C@H](CCCCN)NC(=O)[C@H](CCCCN)NC(=O)[C@H]([C@@H](C)O)NC1=O [KFLPWKWFCAITKKC]							64 µM (≈ 121 µg/mL)									MIC [16]: 16 µM (≈ 30.4 µg/mL); MIC [17]: ≥ 256 µM; MIC [18]: 16 µM (≈ 30.4 µg/mL); MIC [19]: ≥ 32 µM; MIC [20]: 8 µM (≈ 15.2 µg/mL); MIC [21]: 8 µM (≈ 15.2 µg/mL)
